“And” between values parts separate entries of the source, which are not always exact repeats. Equal values may be shown once. Where a name gives a salt, the structure may show the parent alone. Read-outs that look alike come from different tables or passages of the source.
Assays:
[1] = target: T1, Top1 (Homo sapiens, UniProt P11387); details: background statement; cited from earlier work
T1 sequence (P11387 1-765): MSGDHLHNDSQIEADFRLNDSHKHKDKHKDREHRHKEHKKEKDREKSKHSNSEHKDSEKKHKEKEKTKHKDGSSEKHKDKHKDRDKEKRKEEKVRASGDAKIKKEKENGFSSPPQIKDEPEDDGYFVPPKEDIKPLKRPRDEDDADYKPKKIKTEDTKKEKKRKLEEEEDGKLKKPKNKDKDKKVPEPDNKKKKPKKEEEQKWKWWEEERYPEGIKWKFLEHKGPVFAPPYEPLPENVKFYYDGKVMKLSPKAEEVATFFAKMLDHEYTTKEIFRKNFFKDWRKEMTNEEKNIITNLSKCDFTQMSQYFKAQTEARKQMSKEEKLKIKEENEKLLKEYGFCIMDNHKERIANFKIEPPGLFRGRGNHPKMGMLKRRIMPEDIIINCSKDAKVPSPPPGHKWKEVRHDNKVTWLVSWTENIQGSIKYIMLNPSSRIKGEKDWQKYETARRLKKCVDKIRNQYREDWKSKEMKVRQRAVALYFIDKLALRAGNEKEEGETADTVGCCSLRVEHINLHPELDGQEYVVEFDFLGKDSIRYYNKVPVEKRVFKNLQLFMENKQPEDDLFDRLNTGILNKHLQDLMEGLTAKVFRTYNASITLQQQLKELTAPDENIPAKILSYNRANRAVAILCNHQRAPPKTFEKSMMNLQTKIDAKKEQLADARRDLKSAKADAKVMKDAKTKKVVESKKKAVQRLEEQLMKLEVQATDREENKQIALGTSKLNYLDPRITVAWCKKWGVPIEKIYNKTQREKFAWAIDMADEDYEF

[2] = tested on: approximately 60 different cancer cell lines; test: NCI-60 five-dose cytotoxicity assay, mean graph midpoint; type: cell-based; details: Homo sapiens, read-out: MGM: mean graph midpoint of growth inhibition (GI50)
Procedure: (§1) The new indenoisoquinolines were evaluated for cancer cell growth inhibitory activities. The National Cancer Institute's NCI-60 cytotoxicity assay measures the ability of test agents to inhibit the growth of approximately 60 different cancer cell lines. In the initial single-dose assay, cells are treated with a 10 μM dose of test agent. The growth of treated cells versus untreated cells is then compared. If a test agent induces a sufficiently low mean growth percent, it is promoted to five-dose testing to determine a mean graph midpoint (MGM) GI50 value. In five-dose testing, cells are treated with test agent concentrations ranging from 10^−8 to 10^−4 M. The concentration required to achieve 50% growth inhibition in a particular cell line is calculated. In situations in which this value is greater than 100 μM or less than 0.01 μM, it is recorded as 100 μM and 0.01 μM, respectively. The values for each of the tested cell lines are averaged to obtain a mean graph midpoint (MGM) GI50 value. MGM GI50 values are often, but not always, determined from two separate rounds (Table 1).

[3] = tested on: Ovarian, OVCAR-3; test: NCI-60 five-dose cytotoxicity assay, OVCAR-3; details: Homo sapiens, OVCAR-3, read-out: Cytotoxicity GI50, Ovarian, OVCAR-3
Procedure: as §1

[4] = tested on: CNS, SF-539; test: NCI-60 five-dose cytotoxicity assay, SF-539; details: Homo sapiens, CNSSF-539, read-out: Cytotoxicity GI50, CNS, SF-539
Procedure: as §1

[5] = tested on: Prostate, DU-145; test: NCI-60 five-dose cytotoxicity assay, DU-145; details: Homo sapiens, DU-145, read-out: Cytotoxicity GI50, Prostate, DU-145
Procedure: as §1

[6] = tested on: Melanoma UACC-62; test: NCI-60 five-dose cytotoxicity assay, UACC-62; details: Homo sapiens, UACC-62, read-out: Cytotoxicity GI50, Melanoma UACC-62
Procedure: as §1

[7] = tested on: Lung, HOP-62; test: NCI-60 five-dose cytotoxicity assay, HOP-62; details: Homo sapiens, HOP-62, read-out: Cytotoxicity GI50, Lung, HOP-62
Procedure: as §1

[8] = tested on: Colon, HCT-116; test: NCI-60 five-dose cytotoxicity assay, HCT-116; details: Homo sapiens, HCT-116, read-out: Cytotoxicity GI50, Colon, HCT-116
Procedure: as §1

[9] = tested on: Renal, SN12C; test: NCI-60 five-dose cytotoxicity assay, SN12C; details: Homo sapiens, read-out: Cytotoxicity GI50, Renal, SN12C
Procedure: as §1

[10] = tested on: Breast, MCF7; test: NCI-60 five-dose cytotoxicity assay, MCF7; details: Homo sapiens, MCF7, read-out: Cytotoxicity GI50, Breast, MCF7
Procedure: as §1

[11] = target: T2, recombinant human TDP2 (Homo sapiens, UniProt O95551); test: Recombinant TDP2 assay; type: biochemical; details: recombinant human TDP2, gel-based; read-out: TDP2: IC50 values for the inhibition of TDP2
T2 sequence (O95551 1-362): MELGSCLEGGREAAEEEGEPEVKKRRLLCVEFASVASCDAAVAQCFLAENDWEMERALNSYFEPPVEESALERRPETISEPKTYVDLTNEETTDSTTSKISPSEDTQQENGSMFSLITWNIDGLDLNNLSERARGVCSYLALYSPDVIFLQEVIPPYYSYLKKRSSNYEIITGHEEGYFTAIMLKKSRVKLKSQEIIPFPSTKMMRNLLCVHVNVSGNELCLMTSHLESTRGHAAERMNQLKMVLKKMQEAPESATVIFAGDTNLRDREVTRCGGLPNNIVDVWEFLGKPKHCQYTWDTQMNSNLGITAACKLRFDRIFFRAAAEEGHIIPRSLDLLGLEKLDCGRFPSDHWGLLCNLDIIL
Text: Reactions were terminated and treated similarly to recombinant TDP1 reactions.
TDP2, as opposed to TDP1, cleaves the phosphotyrosyl linkage in 5′-phosphotyrosyl-DNA oligonucleotides.

[12] = target: T1, Top1; test: Top1-mediated DNA cleavage assay; type: biochemical; details: score based on the activity of 1 μM 1 (camptothecin); tested at 0.1, 1, 10, 100 μM
Procedure: Approximately 2 nM radiolabeled DNA substrate was incubated with recombinant Top in 20 μL of reaction buffer [10 mM Tris-HCl (pH 7.5), 50 mM KCl, 5 mM MgCl2, 0.1 mM EDTA, and 15 μg/mL BSA] at 25° C. for 20 min in the presence of various concentrations of test compounds. […] Aliquots of each reaction mixture were subjected to 20% denaturing PAGE.
The Top1-mediated DNA cleavage assay was used to measure Top1 inhibitory activity. This assay measures the ability of the compound to stabilize DNA cleavage in a 3′-[^32P]-labeled DNA substrate via Top1 poisoning.

[13] = target: recombinant TDP1 (Homo sapiens, UniProt Q9NUW8); test: Recombinant TDP1 assay; type: biochemical; details: recombinant TDP1, gel-based; read-out: TDP1: IC50 values for the inhibition of TDP1
recombinant TDP1, sequence (Q9NUW8 whole entry, species assumed): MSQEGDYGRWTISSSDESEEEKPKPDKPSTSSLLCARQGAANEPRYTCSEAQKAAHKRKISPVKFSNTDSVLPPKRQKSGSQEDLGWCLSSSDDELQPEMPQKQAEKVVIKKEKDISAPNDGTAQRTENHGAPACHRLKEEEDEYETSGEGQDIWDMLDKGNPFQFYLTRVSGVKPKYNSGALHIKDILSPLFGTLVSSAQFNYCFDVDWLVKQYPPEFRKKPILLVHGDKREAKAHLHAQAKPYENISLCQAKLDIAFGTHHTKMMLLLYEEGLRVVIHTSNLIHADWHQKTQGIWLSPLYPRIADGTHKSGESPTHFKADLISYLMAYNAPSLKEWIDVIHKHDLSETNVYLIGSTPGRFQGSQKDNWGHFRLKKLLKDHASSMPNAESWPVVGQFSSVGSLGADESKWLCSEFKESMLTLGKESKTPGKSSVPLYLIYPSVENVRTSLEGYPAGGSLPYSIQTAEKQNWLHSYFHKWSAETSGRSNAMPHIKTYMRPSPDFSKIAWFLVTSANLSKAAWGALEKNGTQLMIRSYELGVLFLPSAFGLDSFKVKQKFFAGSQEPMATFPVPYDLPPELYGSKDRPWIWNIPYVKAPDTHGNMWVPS
Procedure: A 5′-[^32P]-labeled single-stranded DNA oligonucleotide containing a 3′-phosphotyrosine (N14Y) was incubated at 1 nM with 10 pM recombinant TDP1 in the absence or presence of inhibitor for 15 min at room temperature in the LMP1 assay buffer containing 50 mM Tris HCl, pH 7.5, 80 mM KCl, 2 mM EDTA, 1 mM DTT, 40 μg/mL BSA, and 0.01% Tween-20^18. […] Gels were dried and exposed to a PhosphorImager screen (GE Healthcare). Gel images were scanned using a Typhoon 8600 (GE Healthcare), and densitometry analyses were performed using ImageQuant software (GE Healthcare).
TDP1 is involved in the repair of DNA damage that results from the action of Top1 poisons, which induce the formation of DNA-protein adducts that include a 3′-phosphotyrosyl linkage. The TDP1 inhibition assay assesses a test agent's ability to inhibit the enzyme-induced cleavage of a 5′-^32P, 3′-phosphotyrosyl-DNA oligonucleotide, called N14Y. Cleavage of the phosphodiester bond between the 3′-phosphate and tyrosine releases […] from the DNA oligonucleotide. The enzyme-processed DNA oligonucleotide lacking its 3′-phosphotyrosyl moiety is designated N14P. A schematic representation of the assay and a representative gel are shown in FIG. 2, and the TDP1 screening results are listed in Table 1.

[14] = tested on: 60 human cancer cell lines; test: NCI-60 single-dose cytotoxicity assay; type: cell-based; details: mean-graph midpoint of percent growth of 60 human cancer cell lines, 10 μM drug, 48 h, relative to no-drug control and time zero
Procedure: as §1

[15] = 5 dose assay, 10^−8-10^−4 M, average over tested cell lines

| SMILES | Top1 inhibitory activity [1] | GI50 [2] [nM] | GI50 [3] [nM] | GI50 [4] [nM] | GI50 [5] [nM] | GI50 [6] [nM] | GI50 [7] [nM] | GI50 [8] [nM] | GI50 [9] [nM] | GI50 [10] [nM] | IC50 [11] [µM] | Top 1: compound-induced DNA cleavage due to Top1 poisoning [12] | melting point [°C] | IC50 [13] | Mean Growth % [14] [%] | GI50 [2, 15] [nM] | activity at 10 µM [14] [%] |
| --- | --- | --- | --- | --- | --- | --- | --- | --- | --- | --- | --- | --- | --- | --- | --- | --- | --- |
| O=C1c2ccccc2-c2c1c1ccccc1c(=O)n2CCCNCCCNCCCn1c2c(c3ccccc3c1=O)C(=O)c1ccccc1-2 [Compound 5] | potent | – | – | – | – | – | – | – | – | – | – | – | – | – | – | – | – |
| CC[C@@]1(O)C(=O)OCc2c1cc1n(c2=O)Cc2cc3ccccc3nc2-1 [Compound 1, camptothecin, reference compound] | – | 40.5 | 220 | 10 | 10 | 10 | 10 | 30 | 20 | 10 | – | – | – | – | – | – | – |
| CN(C)CCCn1c2c(c3ncccc3c1=O)C(=O)c1ccccc1-2 [Compound 44, 1-Aza-5,6-dihydro-6-(3-(dimethylamino)propyl)-5,11-dioxo-indeno[1,2-c]isoquinoline] | – | – | – | – | – | – | – | – | – | – | > 111 | ++ (++, between 50 and 75% activity) | 187 to 188 | 90 µM | 44.4 | – | – |
| O=C1c2ccccc2-c2c1c1ncccc1c(=O)n2CCCn1ccnc1 [Compound 40, 1-Aza-5,6-dihydro-6-(3-(1H-imidazol-1-yl)propyl)-5,11-dioxo-indeno[1,2-c]isoquinoline] | – | – | – | – | – | – | – | – | – | – | > 111 | ++ (++, between 50 and 75% activity) | 242 to 243 | > 111 µM | 83.6 | – | – |
| CN(C)CCCn1c2c(c3ccncc3c1=O)C(=O)c1ccccc1-2 [Compound 46, 3-Aza-5,6-dihydro-6-(3-(dimethylamino)propyl)-5,11-dioxo-11H-indeno[1,2-c]isoquinoline] | – | – | 2000 | – | – | – | – | 380 | – | – | – | ++ (++, between 50 and 75% activity) | 168 to 170 | – | – | 977 | – |
| NCCCn1c2c(c3cccnc3c1=O)C(=O)c1ccccc1-2 [Compound 60, 6-(3-Aminopropyl)-4-aza-5,6-dihydro-5,11-dioxo-indeno[1,2-c]isoquinoline Dihydrochloride] | – | – | 2290 | – | 1910 | 1350 | 1450 | 537 | 1120 | 417 | > 111 | ++ (++, between 50 and 75% activity) | – | 60 µM and > 111 µM | – | 1510 | 12.2 |
| CN(C)CCCn1c2c(c3cnccc3c1=O)C(=O)c1ccccc1-2 [Compound 45, 2-Aza-5,6-dihydro-6-(3-(dimethylamino)propyl)-5,11-dioxo-indeno[1,2-c]isoquinoline] | – | – | 1100 | – | 490 | 309 | 398 | 245 | 288 | 245 | 37 | ++ (++, between 50 and 75% activity) | 177 to 178 | 63 µM | – | 437 | -8.83 |
| O=C1c2ccccc2-c2c1c1cnccc1c(=O)n2CCCn1ccnc1 [Compound 41, 2-Aza-5,6-dihydro-6-(3-(1H-imidazol-1-yl)propyl)-5,11-dioxo-indeno[1,2-c]isoquinoline] | – | – | – | – | – | – | – | – | – | – | > 111 | ++ (++, between 50 and 75% activity) | 274 to 275 | > 111 µM | 67.8 | – | – |
| CN(C)CCCn1c2c(c3cccnc3c1=O)C(=O)c1ccccc1-2 [Compound 47, 4-Aza-5,6-dihydro-6-(3-(dimethylamino)propyl)-5,11-dioxo-indeno[1,2-c]isoquinoline] | – | – | 2400 | – | 1910 | 1290 | – | 437 | 1120 | 363 | > 111 | +++ (+++, between 75 and 95% activity) | 183 to 184 | ~111 µM | – | 1260 | 5.45 |
| O=C1c2ccccc2-c2c1c1ncccc1c(=O)n2CCCN1CCOCC1 [Compound 36, 1-Aza-5,6-dihydro-6-(3-morpholinopropyl)-5,11-dioxo-indeno[1,2-c]isoquinoline] | – | – | – | – | – | – | – | – | – | – | > 111 | ++ (++, between 50 and 75% activity) | 223 to 224 | > 111 µM | 87.9 | – | – |

— patent US10759795B2, “Aza-A-ring indenoisoquinoline topoisomerase I poisons” (Purdue Research Foundation, priority 2016, dated 2020)
